As usually defined, the inhibition is the change of the read-out against control, counted positive when it falls. A lower inhibition goes with little suppression. The term IC50 denotes the point on the concentration scale where inhibition reaches its midpoint. High values mean weaker potency, low ones greater potency.

Results on 8 molecules are retold here after patent publication EP0652009A1, “Identification and use of protease inhibitors” (ELI LILLY AND COMPANY, priority 1993, dated 1995).

The test system of test [1] is βAP production. The experiment in a line: Assay 4: βAP production inhibition (cellular assay, ELISA of conditioned media, normalised to MTT). To be noted: compound at 10 µg/mL; 293 751 SWE and CHO 751 SWE cells (table does not say which); βAP ELISA divided by MTT result, relative to drug-free control; mean and standard deviation of at least six replicate assays. It is filed as cell-based, human; Chinese hamster. The source says: The test system used to measure the βAP production inhibition activity is typically a cellular assay or an animal model. Preferably, the βAP production inhibition activity is obtained by direct measurement of βAP production in a cellular assay, as described in WO9410569, the full disclosure of which is incorporated herein by reference. This assay is exemplified in Assay 4, below.
Two cell lines (human kidney cell line 293 and Chinese hamster ovary cell line CHO) were stably transfected with the gene for APP-751 containing the double mutation Lys₆₅₁-Met₆₅₂ to Asn₆₅₁-Leu₆₅₂ (APP-751 numbering) commonly called the Swedish mutation using the method described in Citron et al., (1992) Nature 360:672-674. The transfected cell lines were designated as 293 751 SWE and CHO 751 SWE, and were plated in Corning 96 well plates at 2.5x10⁴ or 1x10⁴ cells per well respectively in Dulbecco's minimal essential media plus 10% fetal bovine serum. Following overnight incubation at 37°C in an incubator equilibrated with 10% carbon dioxide (CO₂), the media were removed and replaced with 200 µL per well of media containing an aspartyl protease inhibitor. After a two hour pretreatment period, the media were again removed and replaced with fresh media containing the aspartyl protease inhibitor and the cells were incubated for an additional two hours.
After treatment, plates were centrifuged in a Beckman GPR at 1200 rpm for five minutes at room temperature to pellet cellular debris from the conditioned media. From each well, 100µL of conditioned media were transferred into an ELISA plate precoated with antibody 266 against βAP-13-28 (Seubert et al., supra.) and stored at 4°C overnight. An ELISA assay employing labelled antibody 6C6 (against βAP-1-16) was run the next day to measure the amount of βAP produced.
Cytotoxic effects of the compounds were measured by a modification of the method of Hansen et al., (1989) J. Immun. Meth. 119:203-210. To the cells remaining in the tissue culture plate, was added 25 µL of a 3,(4,5-dimethylthiazol-2-yl)2,5-diphenyltetrazolium bromide (MTT) stock solution (5 mg/mL) to a final concentration of 1 mg/mL. Cells were incubated at 37°C for one hour, and cellular activity was stopped by the addition of an equal volume of MTT lysis buffer (20% w/v sodium dodecylsulfate in 50% DMF, pH 4.7). Complete extraction was achieved by overnight shaking at room temperature. The difference in the OD562nm and the OD650nm was measured in a Molecular Devices UVmax microplate reader as an indicator of the cellular viability.
The results of the βAP ELISA were fit to a standard curve and expressed as ng/mL βAP peptide. In order to normalize for cytotoxicity, these βAP results were divided by the MTT results and expressed as a percentage of the results from a drug-free control.
The compounds prepared above in Examples 9, 12, 13, 20-23, 23A, 24, 30, 41-43, 45, and 48 were assayed for βAP production inhibition activity in cells at 10 µg/mL using Assay 4. The results presented in Assay Table 4, below, are the mean and standard deviation of at least six replicate assays. Assay Table 4

The target in test [2] is Human liver cathepsin D (Homo sapiens, UniProt P07339). The experiment in a line: Assay 2: cathepsin D inhibition activity (non-cellular fluorometric assay). It is filed as biochemical. The arrangement: Human liver cathepsin D (Athens Research and Technology, Athens, GA); purchased Athens Research and Technology, Athens, GA. To be noted: compound at 10 µg/mL; percent inhibition of control activity; mean and standard deviation of at least four replicate assays. The method, then:
A second non-cellular assay for determining in vitro aspartyl protease inhibitory activity utilizes a microtiter plate, where a suitable aspartyl protease, such as cathepsin D is added to each well together with controls. A suitable fluorometric substrate is added to each well. The resultant reaction mixture is allowed to react for a preselected time, e.g., 30 minutes. After enzyme activity is terminated, the substrate or its product may be determined fluorometrically and then the protease inhibition activity may be calculated based on the rates of substrate turnover. This assay is exemplified in Assay 2, below.
A fluorometric assay was adapted from the method disclosed by Murakami et al., (1981) Anal. Biochem. 110:232-239 for measuring renin activity. Human liver cathepsin D (Athens Research and Technology, Athens, GA) was diluted in assay buffer, 200mM NaOAc, pH 4.5, 150mM NaCl to 500 ng/mL and then 100 µL of this cathepsin D solution was added to each well of a 96 well plate with the exception of control wells which received just 100 µL of assay buffer. Compound stocks were prepared by dissolving an aspartyl protease inhibitor in DMSO for each concentration tested in the assay and then 5 µL of compound stock was added to each of the wells prepared above. Blank and enzyme control wells each received 5 µL of the DMSO vehicle.
Following a ten minute incubation at 25°C to allow enzyme/compound interaction, 5 µL of 500µM fluorometric substrate (Suc-Arg-Pro-Phe-His-Leu-Leu-Val-Try-AMC [SEQ ID NO:4], Bachem Biosciences, Philadelphia, PA) in DMSO was added per well to initiate the reaction. After incubation at 37°C for 30 minutes, cathepsin D activity was terminated by the addition of 100 µL per well of 400 mU/mL microsomal leucine aminopeptidase (EC 3.4.11.2, Sigma, St. Louis, MO) in 1M Tris-HCl, pH 8.0.
The plates were then analyzed in a fluorometer (CytoFluor 2350, Millipore, Bedford, MA) with an excitation wavelength of 360nm and an emission wavelength of 460nm, in order to check for background fluorescence due to test compounds. Following a two hour incubation at 37°C, to allow the aminopeptidase to release the fluorophore, 7-amido-4-methylcoumarin (AMC) from the products of cathepsin D cleavage, the plates were again analyzed in the fluorometer. In order to check for potential false positives, i.e., inhibitors of microsomal leucine aminopeptidase, residual aminopeptidase activity was monitored directly in each well by the addition of 20 µL/well of 2.5mM Leu-pNA (Bachem Biosciences, Philadelphia, PA) in 10% DMSO. Aminopeptidase activity was measured as an increase in the absorbance at 405nm in a UVmax microplate reader (Molecular Devices, Menlo Park, CA).
The compounds prepared in Examples 9, 12, 13, 20-23, 23A, 24, 30, 41-43, 45, and 48 were assayed at 10 µg/mL for cathepsin D inhibition activity using Assay 2. Cathepsin D activity was linear under these conditions and the results are expressed as percent inhibition of the control activity in Assay Table 2, below. All results presented are the mean and standard deviation of at least four replicate assays. Assay Table 2

For test [3], the target named is T1, Human brain cathepsin D (Homo sapiens, UniProt P07339).
T1 construct: Human brain cathepsin D was purified from frozen post-mortem cortex; from tissue; host or cells: human post-mortem brain cortex
T1 sequence (P07339 65-412): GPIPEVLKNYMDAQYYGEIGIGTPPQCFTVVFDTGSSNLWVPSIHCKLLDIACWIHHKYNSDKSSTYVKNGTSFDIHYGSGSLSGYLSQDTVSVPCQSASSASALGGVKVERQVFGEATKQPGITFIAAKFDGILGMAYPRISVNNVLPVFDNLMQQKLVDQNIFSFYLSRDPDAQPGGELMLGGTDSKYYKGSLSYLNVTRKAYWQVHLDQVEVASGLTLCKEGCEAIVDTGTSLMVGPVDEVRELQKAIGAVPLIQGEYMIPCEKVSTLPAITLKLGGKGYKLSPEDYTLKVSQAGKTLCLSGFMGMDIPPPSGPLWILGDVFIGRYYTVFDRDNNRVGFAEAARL
Nature of the test: Assay 1: cathepsin D inhibition activity (non-cellular assay, porcine renin tetradecapeptide substrate, RP-HPLC). In kind it is biochemical. To be noted: purified human brain cathepsin D, pH 4.5, 44 µM porcine renin tetradecapeptide, 37°C. The method, then: An example of a non-cellular assay that may be used to determine in vitro aspartyl protease inhibitory activity reacts partially purified human brain cathepsin D with a substrate, e.g., porcine renin tetradecapeptide. The resultant reaction mixture is divided into portions and each portion is incubated for a different period of time. After the reaction is stopped, the turnover of substrate in each portion is determined using reverse-phase HPLC. Protease inhibition activity may be calculated based on the rates of substrate turnover. This assay is exemplified in Assay 1, below. Human brain cathepsin D was purified from frozen post-mortem cortex substantially in accordance with the method of Nixon and Morotta, (1984) J. Neurochem. 43:507-516. The cortex material was prepared and applied to a DEAE-Sepharose® column. The flow through fraction was dialyzed against 50mM Tris-HCl, pH 7.5, and applied to concanavalin A Sepharose® and eluted with 50mM Tris, pH 7.5, 0.5M methyl α-D-mannopyranoside. The eluted cathepsin D activity was dialyzed against 25mM Tris, pH 7.5, and stored at -40°C (Con A pool) until use. For each assay, 50 μL of the Con A pool was diluted to 270 μL in 200mM sodium citrate, pH 4.5, 150mM sodium chloride (NaCl), and incubated for 10 minutes at 4°C with 15 μL of compound stock diluted in dimethylsulfoxide (DMSO). The substrate, porcine renin tetradecapeptide ([…] [SEQ ID NO:3], Bachem Bioscience, Inc., Philadelphia, PA), was added to each reaction mixture to yield a final concentration of 44 μM in a total volume of 300 μL. The samples were incubated at 37°C for 0, 10, 20, or 30 minutes, and then boiled for 5 minutes to stop the reaction. The samples were centrifuged in a microcentrifuge for 10 minutes at 14,000 rpm at 4°C. After centrifugation, 200 μL of each reaction was injected onto […] column (Vydac, Hesperia, CA) with a Perkin Elmer ISS 100 autosampler and eluted with a gradient eluent of 0-50% CH3CN in 0.1% CF3CO2H at 2 mL/min. Peptide product peaks were monitored at 220nm with a Perkin Elmer LC 95 detector and integrated with Rainin Dynamax software in order to quantitate activity.

Non-standard residues stand in square brackets, D forms with d. Residues, ends and D or L forms follow the SMILES beside them. Sta = CC(C)C[C@H](N)[C@@H](O)CC(=O)O; N(iPr)Gly = CC(C)NCC(=O)O

Human liver cathepsin D, sequence (P07339 169-412 limits assumed): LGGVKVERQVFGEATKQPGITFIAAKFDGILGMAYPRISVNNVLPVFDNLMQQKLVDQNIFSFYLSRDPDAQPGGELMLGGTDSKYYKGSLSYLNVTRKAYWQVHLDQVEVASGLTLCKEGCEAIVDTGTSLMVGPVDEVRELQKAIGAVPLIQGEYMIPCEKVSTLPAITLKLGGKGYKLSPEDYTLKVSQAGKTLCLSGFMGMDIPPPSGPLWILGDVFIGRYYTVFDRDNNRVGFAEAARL
Human liver cathepsin D, sequence (P07339 65-162 limits assumed): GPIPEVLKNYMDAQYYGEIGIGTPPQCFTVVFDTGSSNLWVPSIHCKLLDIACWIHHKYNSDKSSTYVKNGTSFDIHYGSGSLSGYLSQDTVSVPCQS

For `CC(C)[C@H](NC(=O)c1cnc2ccccc2n1)C(=O)N[C@@H](Cc1ccccc1)[C@H](O)Cc1ccccc1C(=O)NC(C)(C)C` [Example 12, [1S-(1R*,4R*,5S*)]-N-(1-Isopropyl-2-oxo-3-aza-4-phenylmethyl-5-hydroxy-6-(2-(1-t-butylamino-1-oxomethyl)phenyl)hexyl)-2-quinoxalinyl acetamide], the inhibition at 10 µg/mL in test [1] is 12.4 ± 6%; in test [2], 12.4 ± 3.7%. In the case of `CC(C)[C@H](NC(=O)c1ccc2ccccc2c1)C(=O)N[C@@H](Cc1ccccc1)[C@H](O)Cc1ccccc1C(=O)NC(C)(C)C` [Example 13], the figures for the inhibition at 10 µg/mL in test [1] and in test [2] were 91.4 ± 3.9% and 91.4 ± 0.4%, respectively. The like results for `CC(C)C[C@H](NC(=O)c1ccc2ccccc2n1)C(=O)N[C@@H](Cc1ccccc1)[C@H](O)Cc1ccccc1C(=O)NC(C)(C)C` [Example 20, [1S-(1R*,4R*,5S*)]-N-(1-(2-Methylpropyl)-2-oxo-3-aza-4-phenylmethyl-5-hydroxy-6-(2-(1-t-butylamino-1-oxomethyl)phenyl)hexyl)-quinolin-2-yl carboxamide] were, in that order, 94.8 ± 3.1% and 94.8 ± 0.6%. The like results for `CC(C)[C@H](NC(=O)OC(C)(C)C)C(=O)N[C@@H](Cc1ccccc1)[C@H](O)Cc1ccccc1C(=O)NC(C)(C)C` [Example 23A, [2R-(2R*,3S*,6S*)]-N-t-Butyl-2-[2-hydroxy-3-phenylmethyl-4-aza-5-oxo-6-N(t-butoxycarbonyl)amino-7-methyl]octyl benzamide] were, in that order, 32.5 ± 3.3% and 32.5 ± 4.7%. `CC[C@H](C)[C@H](NC(=O)C[C@H](O)[C@H](CC(C)C)NC(=O)CNC(C)C)C(=O)N[C@@H](C)C(=O)N[C@H](C(=O)O)[C@@H](C)O` [Example 44, (CH3)2CH-Gly-Sta-Ile-Ala-Thr-OH] (H-[N(iPr)Gly][Sta]IAT-OH) gave an IC50 in test [3] of over 100 nM. Same read-out and setting: for `CC(C)C[C@H](NC(=O)[C@@H](NC(=O)CNC(C)C)C(C)C)[C@@H](O)CC(=O)N[C@@H](C)C(=O)N[C@H](C(=O)O)[C@@H](C)O` [Example 46, (CH3)2CH-Gly-Val-Sta-Ala-Thr-OH] (H-[N(iPr)Gly]V[Sta]AT-OH) the value was over 250 nM; for `CC[C@H](C)[C@H](NC(=O)[C@@H](NC(=O)[C@@H](NC(=O)CNC(C)C)C(C)C)C(C)C)C(=O)N[C@@H](CC(C)C)[C@@H](O)CC(=O)N[C@H](C(=O)O)[C@@H](C)O` [Example 47, (CH3)2CH-Gly-Val-Val-Ile-Sta-Thr-OH] (H-[N(iPr)Gly]VVI[Sta]T-OH), over 250 nM. With “[1S-(1R*,4R*,5S*)]-N-(1-(Propyl)-2-oxo-3-aza-4-phenylmethyl-5-hydroxy-6-(2-(1-t-butylamino-1-oxomethyl)phenyl)hexyl)-quinolin-2-yl carboxamide [Example 21]”, the “βAP Production Inhibition” value in test [1] is listed as 78.3 ± 1.5%. Besides, the “Cathepsin D Inhibition” value in test [2] worked out at 78.3 ± 3.8%.
